Measurements reported in patent US20080255076A1, “Steroid-Derived Pharmaceutical Compositions” (JadoLabs GmbH, priority 2004, published 2008).

What was measured:
HIV-1 strain NL4-3 = assay: HIV assay; format: cell-based; conditions: compared to solvent; for inhibition of HIV infection: 30 μM, HeLa TZM cells; for inhibition at 30 µM: Human immunodeficiency virus 1, NL43, HeLa TZM cells, read-out: inhibition of HIV infection
Raft liposomes = assay: Disrafter-Liposome Raftophile Assay (D-LRA); conditions: for disrafting activity in the DLRA (in words): significance above 25% or below −25%; for % disrafting in the DLRA with perylene: indicator perylene 2 μM; for % disrafting in the DLRA with perylene / % disrafting in the DLRA with GS-96: test compound 100 μM final, negative = raft augmentation; for % disrafting in the DLRA: indicator not stated; for % disrafting in the DLRA with GS-96: indicator GS-96 0.2 μM
Wild type SV40 viruses = assay: SV40 infection assay; format: cell-based, Simian Virus 40; conditions: HeLa cells
[1] = tested on: vesicular stomatitis virus (VSV); format: cell-based
PR8 virus = assay: microbe, parasite or virus in culture; format: cell-based, influenza virus
Influenza virus = assay: Virus budding assay (influenza assay); format: cell-based; conditions: MDCK cells; test compound 1 h; below 100% = inhibition
[2] = tested on: Rat basophilic leukemia (RBL-2H3) cells; assay: Degranulation assay (β-hexosaminidase release); format: cell-based; conditions: 100 μM, compared to solvent vehicle
Procedure: The assay measures release of β-hexosaminidase as a marker of release of various preformed pharmacological agents in response to clustering of the high affinity IgE receptor (FcεRI) by means of multivalent antigen-IgE complexes. Rat basophilic leukemia (RBL-2H3) cells, a commonly used model of mast cell degranulation, are sensitized with anti-DNP specific IgE and challenged with multivalent DNP-BSA. The release of β-hexosaminidase into the supernatant is measured by enzymatic conversion of the fluorogenic substrate 4-methylumbelliferyl-N-acetyl-[…] to N-acetyl-β-D-glucosamine and highly fluorescent methylumbelliferone and quantified by fluorescence detection in a Tecan Safire™ plate reader. • 2. Materials […]
Two to 24 hours before incubation with test compounds the medium was removed and cells were sensitized with 0.4 μg/ml anti-DNP IgE in fresh medium. […] Hexosaminidase activity in supernatants and lysates was measured by incubating 25 μl aliquots with 100 μl MUG substrate solution in a 96-well plate at 37° C. for 30 min. […] Fluorescence was measured in a Tecan Safire™ plate reader at 365 nm excitation and 440 nm emission settings.
Each compound is tested in duplicates in at least three independent experiments. β-hexosaminidase release is calculated after subtraction of unspecific release (release without addition of antigen) using the formula: […]

[3] = Betapolyomavirus macacae, M-HeLa, 30 μM, compared to solvent
[4] = unidentified influenza virus, PR8, MDCK, read-out: inhibition of PR8 virus replication

Compound: CCCCCCCCCCCC=C1CC[C@H]2[C@@H]3CCC4CC(=O)CC[C@]4(C)[C@H]3CC[C@]12C (relative stereo) [Compound 10ak, cis-Δ^17(20)-Dodecylidene-3-androstanone]
- inhibition of HIV infection (HIV-1 strain NL4-3): 23%
- disrafting activity in the DLRA (in words) (Raft liposomes): high negative or positive values

Compound: C/C=C1/CC[C@H]2[C@@H]3CCc4cc(OC(C)=O)ccc4[C@H]3CC[C@]12C (relative stereo) [Compound 10db, cis-Δ^17(20)-19-Norpregna-1,3,5(10),17(20)-tetraen-3-yl acetate]
- inhibition of HIV infection (HIV-1 strain NL4-3): 27%
- inhibition of SV40 infection (Wild type SV40 viruses; 30 μM, compared to solvent): 52.2%
- inhibitory effect on viral infection in the VSV counterscreen (in words) [1]: no inhibitory effect on viral infection at all
- % disrafting in the DLRA with perylene (Raft liposomes): −536%
- disrafting activity in the DLRA (in words) (Raft liposomes): high negative or positive values

Compound: C[C@]12CC[C@@H](O)C[C@@H]1CC[C@@H]1[C@@H]2CC[C@]2(C)C(=O)CC[C@@H]12 [Androsterone, reference compound]
- % disrafting in the DLRA (Raft liposomes): 0%
- disrafting activity in the DLRA (in words) (Raft liposomes): do not show significant disrafting activity

Compound: CO[C@@H]1CC[C@@]2(C)[C@@H](CC[C@H]3[C@@H]4CCC[C@@]4(C)CC[C@@H]32)C1 [Compound 10ac, 3alpha-Methoxy-5alpha-androstane]
- inhibition at 30 µM (Wild type SV40 viruses; [3]): 12.9%
- inhibitory effect on viral infection in the VSV counterscreen (in words) [1]: no inhibitory effect on viral infection at all
- % disrafting in the DLRA with perylene (Raft liposomes): about +68%
- disrafting activity in the DLRA (in words) (Raft liposomes): high negative or positive values

Compound: C/C=C1/CCC2C3CCC4C[C@@H](O)CC[C@]4(C)C3CC[C@]12C (stereo partly drawn) [Compound 10ad, cis-Δ^17(20)-5alpha-Pregnen-3beta-ol]
- inhibition at 20 µM (PR8 virus; [4]): 59.6%
- inhibition at 30 µM (Wild type SV40 viruses; [3]): 15.2%
- inhibitory effect on viral infection in the VSV counterscreen (in words) [1]: no inhibitory effect on viral infection at all
- % disrafting in the DLRA with GS-96 (Raft liposomes): about −66%
- % disrafting in the DLRA with perylene (Raft liposomes): about −105%
- disrafting activity in the DLRA (in words) (Raft liposomes): high negative or positive values
- virus budding, percentage with respect to an untreated control (Influenza virus): 61%

Compound: C/C=C1/CCC2C3CCC4CC(=O)CC[C@]4(C)C3CC[C@]12C (stereo partly drawn) [Compound 10ae, cis-Δ^17(20)-5alpha-Pregnen-3-one]
- inhibition at 50 µM (PR8 virus; [4]): 32.9%
- % disrafting in the DLRA with GS-96 (Raft liposomes): ~−20%
- % disrafting in the DLRA with perylene (Raft liposomes): about −43%
- disrafting activity in the DLRA (in words) (Raft liposomes): high negative or positive values
- virus budding, percentage with respect to an untreated control (Influenza virus): about 140%

Compound: CC[C@H]1CC[C@H]2[C@@H]3CC[C@H]4C[C@@H](O)CC[C@]4(C)[C@H]3CC[C@]12C [Compound 10af, 5alpha-Pregnan-3beta-ol]
- inhibition at 50 µM (PR8 virus; [4]): 27.9%
- inhibition at 30 µM (Wild type SV40 viruses; [3]): 18.9%
- inhibitory effect on viral infection in the VSV counterscreen (in words) [1]: no inhibitory effect on viral infection at all
- % disrafting in the DLRA with GS-96 (Raft liposomes): −74.7%
- % disrafting in the DLRA with perylene (Raft liposomes): −217%
- disrafting activity in the DLRA (in words) (Raft liposomes): high negative or positive values

Compound: CC[C@H]1CCC2C3CCC4C[C@H](N=[N+]=[N-])CC[C@]4(C)C3CC[C@@]21C (stereo partly drawn) [Compound 10ag, 5alpha-Pregnan-3alpha-azide]
- % disrafting in the DLRA with GS-96 (Raft liposomes): −187%
- % disrafting in the DLRA with perylene (Raft liposomes): −71.8%
- disrafting activity in the DLRA (in words) (Raft liposomes): high negative or positive values

Compound: C/C=C1/CCC2C3CCc4cc(O)ccc4C3CC[C@]12C (stereo partly drawn) [Compound 10da, cis-Δ^17(20)-19-Norpregna-1,3,5(10),17(20)-tetraen-3-ol]
- inhibition at 30 µM (HIV-1 strain NL4-3): 18%
- inhibition at 15 µM (Wild type SV40 viruses; Betapolyomavirus macacae, M-HeLa, 15 μM): 29.6%
- inhibitory effect on viral infection in the VSV counterscreen (in words) [1]: no inhibitory effect on viral infection at all
- % disrafting in the DLRA with perylene (Raft liposomes): −729%
- disrafting activity in the DLRA (in words) (Raft liposomes): high negative or positive values

Compound: C/C=C1/CCC2C3CCc4cc(OC)ccc4C3CC[C@]12C (stereo partly drawn) [Compound 10dc, cis-Δ^17(20)-19-Norpregna-1,3,5(10),17(20)-tetraen-3-yl methyl ether]
- inhibition at 30 µM (HIV-1 strain NL4-3): 38%
- % disrafting in the DLRA with perylene (Raft liposomes): −139%
- disrafting activity in the DLRA (in words) (Raft liposomes): high negative or positive values

Compound: CC(C)CCC[C@@H](C)[C@H]1CC[C@H]2[C@@H]3CC=C4C[C@@H](O)CC[C@]4(C)[C@H]3CC[C@]12C [cholesterol, reference compound]
- % disrafting in the DLRA (Raft liposomes): 0%
- disrafting activity in the DLRA (in words) (Raft liposomes): do not show significant disrafting activity

Compound: C[C@]12CC[C@H](O)C[C@@H]1CC[C@@H]1[C@@H]2CC[C@]2(C)C(=O)CC[C@@H]12 [epiandrosterone, reference compound]
- % disrafting in the DLRA (Raft liposomes): 0%
- disrafting activity in the DLRA (in words) (Raft liposomes): do not show significant disrafting activity

Compound: cis-Δ^17(20)-Dodecylidene-3alpha-aminoandrostan [Compound 10al]
- inhibition of PR8 virus replication (PR8 virus; 12.5 μM, MDCK cells): 54%
- inhibition of release of β-hexosaminidase [2]: 61%
- % disrafting in the DLRA with perylene (Raft liposomes): −216%
- disrafting activity in the DLRA (in words) (Raft liposomes): high negative or positive values
